Experiments:
[1] = Multi-dose rat pharmacokinetic and tolerability study; type: in vivo, Sprague Dawley rats; conditions: for AUC / CL/F / fold increase in mean AUCall compared to Study Day 1 / AUC(0-t) / Cmax / Tmax: male, Sprague Dawley; for fold increase in mean AUCall compared to Study Day 1: 7 days
Procedure: The purpose of this study was to determine the pharmacokinetic (PK) properties and tolerability of MGBG in rats. Additionally, recovery from any toxic effects was assessed after a seven day non-dosing period.
Three per group of male Sprague Dawley (CD® MS, Charles River) aged 7-9 weeks and weighing 222.7-252.0 g were administered by oral (PO) gavage, twice daily, at 10, 20, or 30 mg/kg/dose (20, 40, or 60 mg/kg/day) for seven consecutive days. A washout period of seven days followed. Collection of approximately 200 μL of whole blood was collected from the tail vein of all animals in Groups 5, 6, and 7 were bled at six (Day 1), seven (Day 7), or one (Days 9 through 15) time point(s), respectively. Whole blood samples were collected in a lithium heparin microtainer and processed to plasma by centrifugation. Plasma was frozen at −70° C. Pharmacokinetic analyses were performed on the individual animal plasma concentration versus time data for MGBG using WinNonlin (linear trapezoidal rule for AUC calculations). Nominal dose values and sampling times were used for calculations. For Study Day 7, the reported values for MGBG concentrations at time zero were used in the calculations of AUC. Study Day 1 disposition parameters were not reported due to insufficient terminal phase data to adequately characterize these parameters.
On Study Day 7, evidence of dose-dependent dispositions for Cl/Fobs and elimination half-life were observed as mean parameter values for Cl/Fobs and elimination half-life increased and decreased, respectively, with increasing dose levels.
Based on the findings of this exploratory study, the no observable adverse effect level (NOAEL) for MGBG administered by PO gavage twice daily for seven consecutive days to male Sprague Dawley rats is 30 mg/kg/dose (60 mg/kg/day).

[2] = test system: carrageenan air pouch inflammation; test: Carrageenan air pouch model; type: in vivo, Swiss Webster mice; conditions: mice, MGBG PO BID 3, 10, 30 mg/kg/dose
Description: Injection of air subcutaneously will induce the formation of a connective tissue cavity lined with cells that resemble and function like a synovial lining. This method is commonly known as the Air Pouch Model and is a useful animal model of inflammation that can be generated in a relatively short period of time. The air pouch may be created by subcutaneous (SQ) injection of a volume of sterile air in the dorsal neck region. The model may be used to test the efficacy and potency of compounds such as polyamine analogues and polyamine biosynthesis inhibitors such as MGBG in reducing various cellular and biochemical indicators of inflammation when administered as an oral (PO) gavage administration.
Animals, compounds, and dosing. Healthy male Swiss Webster mice of 7-9 weeks of age and at least 30 g in weight were used. Animals were divided into six groups of thirty. Each group was administered 6 mL of air subcutaneously as described below on days 4 and 7. […] Tolerance of test compound dosing was monitored in mice by daily visual inspections of physical and behavioral changes, such as examined changes in body posture, hair coat, activity, excreta, etc., and dosing reevaluated upon negative findings. […]
Exudate, Plasma, and Histological Collection. The systemic exposure of the test article was evaluated as follows. Plasma samples were prepared and evaluated as follows. […]

Q: Which results are given for `CC(/C=N/NC(=N)N)=N\NC(=N)N` [MGBG, 1,1′[methylethanediylidene]dinitrilodiguanidine]?
A: increase of systemic exposure (Cmax and AUCall) with increasing dose ([1]; in vivo): slightly less than dose-proportional; hematology parameters versus control group ([1]; in vivo, 60 mg/kg/day): lower reticulocyte count and percentage; serum chemistry parameters versus control group ([1]; in vivo, 60 mg/kg/day): osmolality and electrolyte changes consistent with slight dehydration; NOAEL at 7 days ([1]; in vivo, male Sprague Dawley rats, PO gavage twice daily, seven consecutive days, read-out: no observable adverse effect level (NOAEL)): 60 mg/kg/day; systemic exposure, plasma Day 1 and Day 7 ([1]; in vivo, po): systemic exposure to the test article at all time points; AUC ([1]; in vivo, po, 20 mg/kg/day): 7930 ng·h/mL; CL/F ([1]; in vivo, po, 20 mg/kg/day): 24.3 mL/min/kg; fold increase in mean AUCall compared to Study Day 1 ([1]; in vivo, po, 20 mg/kg/day): 3.77 fold; AUC(0-t) ([1]; in vivo, po, 20 mg/kg/day, AUC0-12): 773 ng·h/mL; AUC(0-t) ([1]; in vivo, po, 20 mg/kg/day, AUC0-24): 1750 ng·h/mL; Cmax ([1]; in vivo, po, 20 mg/kg/day): 124 ng/mL; Tmax ([1]; in vivo, po, 20 mg/kg/day, Tmax): 10 h; AUC ([1]; in vivo, po, 40 mg/kg/day): 13700 ng·h/mL; CL/F ([1]; in vivo, po, 40 mg/kg/day): 28.2 mL/min/kg; fold increase in mean AUCall compared to Study Day 1 ([1]; in vivo, po, 40 mg/kg/day): 4.03 fold; AUC(0-t) ([1]; in vivo, po, 40 mg/kg/day, AUC0-12): 1380 ng·h/mL; AUC(0-t) ([1]; in vivo, po, 40 mg/kg/day, AUC0-24): 2980 ng·h/mL; Cmax ([1]; in vivo, po, 40 mg/kg/day): 175 ng/mL; Tmax ([1]; in vivo, po, 40 mg/kg/day, Tmax): 7.33 h; AUC ([1]; in vivo, po, 60 mg/kg/day): 17100 ng·h/mL; CL/F ([1]; in vivo, po, 60 mg/kg/day): 35.8 mL/min/kg; fold increase in mean AUCall compared to Study Day 1 ([1]; in vivo, po, 60 mg/kg/day): 3.68 fold; AUC(0-t) ([1]; in vivo, po, 60 mg/kg/day, AUC0-12): 2170 ng·h/mL; AUC(0-t) ([1]; in vivo, po, 60 mg/kg/day, AUC0-24): 4380 ng·h/mL; Cmax ([1]; in vivo, po, 60 mg/kg/day): 296 ng/mL; Tmax ([1]; in vivo, po, Tmax values over the dose range evaluated): 3.33 to 14 h; gross or microscopic lesions at terminal sacrifice ([1]; test article-treated animals): No gross or microscopic lesions were observed; efficacy, changes relative to control indicative of reduced inflammation [2]: efficacious

From patent publication US8258186B2, “Pharmaceutical for oral delivery comprising MGBG” (Pathologica, LLC, priority 2009, dated 2012)
